Earlier results, collected in patent US20040039017A1, “Urotensin-II receptor antagonists” (priority 2000, published 2004).

Test system: rat-isolated aorta
Details: Ames et al. Nature 1999, 401, 282

CC(C)[C@H](NC(=O)[C@@H]1CSSC[C@H](NC(=O)[C@H](CC(=O)O)NC(=O)[C@@H]2CCCN2C(=O)[C@@H](NC(=O)[C@@H](N)CCC(=O)O)[C@@H](C)O)C(=O)N[C@@H](Cc2ccccc2)C(=O)N[C@@H](Cc2c[nH]c3ccccc23)C(=O)N[C@@H](CCCCN)C(=O)N[C@@H](Cc2ccc(O)cc2)C(=O)N1)C(=O)O [Human Urotensin-II]
contractile activity: most potent contractile agonist identified to date
